Consider 19 compounds from patent US20250257077A1, “BRIDGED BICYCLIC HETEROCYCLOALKYL PYRIDO-[3,4-d]PYRIDAZINE AMINE DERIVATIVES USEFUL AS NLRP3 INHIBITORS” (Ventus Therapeutics U.S., Inc., priority 2022, published 2025).

Broadly, the IC50 is the concentration needed to halve the response being measured. Higher therefore signals weaker potency. As usually defined, the Kp is the ratio of the level in a tissue or fluid to that in plasma or blood. What is called solubility (kinetic) is the concentration staying in solution when a stock, usually in DMSO, is diluted into the medium. One may read the solubility as how much of the substance goes into solution per volume.

Values after ≈ are worked out from the molar mass of the structure shown. Read-outs that look alike come from different tables or passages of the source.

One data set deals with T1, human NLRP3 (Homo sapiens, UniProt Q96P20).
T1 construct: Human whole blood is drawn from healthy volunteers after obtaining written informed consent; from tissue
The data set is described as follows: Human Whole Blood (hWB) NLRP3 Assay. The class given is cell-based. As to conditions: LPS priming, ATP activation, IL-1β levels. As to the method: (ii) Human Whole Blood (hWB) NLRP3 Assay
Human whole blood is drawn from healthy volunteers after obtaining written informed consent. Heparin lithium coated tubes are used to collect blood from volunteers. Blood samples are distributed on 96 well plates using 90 μl per well. Priming is performed by adding 5 μl of LPS (026: B6; Sigma L-2654) at a final concentration of 1 μg/ml for 4.5 hours in a humidified incubator with 37° C. 5% CO2. Thirty minutes prior to NLRP3 activation, 5 μl of a 20× compound solution or vehicle (2% dimethylsulfoxide (DMSO)) is added to each well and plates were incubated on a shaker (450 rpm) in a humidified incubator with 37° C., 5% CO2. Activation is then performed by adding 3.3 μl of a 31× ATP solution per well. At the end of the 30 minutes stimulation, the plates are centrifuged (800 g, 10 min, room temperature) and the plasma from each well is frozen at −80° C. IL-1β levels in the supernatant were analyzed using a mesoscale discovery assay (MSD K151TUK) according to the manufacturers’ instructions.

Data set [1] in a line: Mouse Hepatocyte Stability Assay. The class given is in vitro ADME. The note with it: mouse hepatocytes, 37° C.; read-out: Hep (mouse) (t½ min). As to the method:
(§1) (v) Mouse and Human Hepatocyte Stability Assays
(§2) A hepatocyte stability assay is a laboratory-based method used to determine the metabolic stability of a compound in hepatocytes (liver cells). This assay provides valuable information about how quickly a drug is metabolized in the liver and can be used to assess its potential effectiveness and safety in drug discovery.
(§3) In the assay, cither human or mouse hepatocytes are incubated with the test compound at a controlled temperature of 37° C., for different time periods (e.g., 5, 15, 30, 60, and 120 minutes). At each time point during the incubation, samples are taken, the reaction is terminated, and the amount of test compound remaining analyzed using LC-MS/MS to monitor the disappearance of the test compound over time (Gradient). […] See, e.g., Coe et al., Methods in Pharmacology & Toxicology (2008) 151.

Data set [2] can be described thus: Brain Levels (Kp and Kpu,u). The class given is in vivo, CDI mice. The note with it: for Kp at 24 h: mice dosed at 20 mpk PO, whole brain AUC over 24 h divided by plasma AUC; for Kp: oral, 20 mpk. As to the method: (iv) Brain Levels (Kp and Kpu,u)—NLRP3
The in vivo total brain to plasma ratio was assessed in CDI mice after oral administration of the compound. Blood was collected at several timepoints up to 24 h, and transferred into plastic micro centrifuge tubes with EDTA-K2 as anticoagulant. Blood samples were centrifuged at 4000 g for 5 minutes at 4° C., to obtain plasma, then immediately frozen and stored at −75±15° C., prior to analysis. Animals were terminally anaesthetized with a rising concentration of CO2 gas at about 1 minute. At selected timepoints, whole brains were removed from the skull, rinsed in cold PBS to remove blood, dried with clean gauze, then frozen in liquid nitrogen and kept at −75±15° C. before analysis. At the time of analysis, brain samples were homogenized with PBS by tissue weight (g) to PBS volume (mL) ratio 1:3.
Plasma and brain drug levels were quantified by LC/MS/MS on an AB Sciex Triple Quad 5500+instrument, after separation on a HALO 160 A ES-C18, 2.7 μm 2.1×50 mm column. Quantitation was performed using a calibration curve prepared in blank plasma or blank brain homogenate. The software WinNonlin (Phoenix™) was used for pharmacokinetic analysis from the concentrations versus time data, including the AUCinf and AUClast. The Kp ratio (total brain concentration over total plasma concentration) was calculated as (AUCtot,br)/(AUCtot,pl).
The unbound brain exposure was assessed as Kpuu, which is the free brain/free plasma concentration ratio (Cu,bt/Cu,pl). The Cu,br/Cu,pl ratios were obtained from in vivo total brain to plasma ratios (Ctot,br/Ctot,pl) by using in vitro determined Fu,br and Fu,pl.
Plasma protein binding and brain homogenate protein binding were measured by equilibrium dialysis in a HTDialysis plate. The dialysis membranes were soaked in ultrapure water for 60 minutes to separate strips, then in 20% ethanol for 20 minutes, finally in dialysis buffer for 20 minutes. The dialysis set up was assembled according to the manufacturer's instruction. Each cell received 150 μL of plasma or brain homogenate spiked with 1 mM of compound, and dialyzed against an equal volume of dialysis buffer (PBS). The dialysis plate was sealed and incubated in an incubator at 37° C. with 5% CO2 at 100 rpm for 6 hours. At the end of incubation, compound concentration was measured in both chambers by LC-MS/MS on a Triple Quad™ 5500 from AB Inc after separation on a XSelect Hss T3.2.5μ (2.1×30 mm) column. Free fraction (Fu) was calculated as (Peak Area Ratio buffer chamber/Peak Area Ratio plasma chamber). Kpuu=(AUCtot,br×Fu,br)/([…])
The Kpu,u was then calculated upon correcting this kp value with mouse plasma protein binding and mouse brain homogenates binding.
A Kpu,u value >0.3 is considered brain penetrant, and a Kpu,u value ≤0.3 is not considered brain penetrant. When the Kpu,u value is not determined, the Kp value may be useful as a metric of potential brain penetrance if the Kp value is >0.3.

The nature of data set [3]: Human Hepatocyte Stability Assay. The class given is in vitro ADME. The note with it: human hepatocytes, 37° C.; read-out: Hep (human) (t½ min). As to the method: as §1, §2, §3
The nature of data set [4]: Solubility Protocol in Phosphate Buffered Saline (PBS). As to conditions: for solubility at 2 h: pH 7.4, aqueous buffer. The class given is physicochemical. As to the method: (vi) Solubility Protocol in Phosphate Buffered Saline (PBS)
The kinetic solubility of test compounds and control compounds was measured in commercial phosphate buffered saline (PBS), pH 7.4 (Wisent, Canada).
Briefly, a stock solution (20 mM DMSO for controls, and 10 mM DMSO for test compounds) was combined with PBS buffer to reach a targeted concentration of 400 μM for controls and 200 μM for test compounds. The spiked-PBS mixtures were then agitated on a VX-2500 multi-tube vortexer (VWR) for 2 hours at room temperature (18° C.). Following agitation, the samples were filtered on a glass fiber filter (1 μm) and the eluates were diluted 400-fold with a mixture of acetonitrile:water (1:1). Solubility determination was then performed against one standard sample prepared in high organic content at the expected top concentration. The lower limit of quantification was arbitrarily set at 1 μM (400-fold dilution of the top concentration) for assay controls, and 0.5 μM for test compounds. On each experimental run, nicardipine and imipramine were assessed as reference compounds for low and high solubility, respectively. All samples were assessed in triplicate and analyzed by LC-MS/MS (using a CTC PAL autosampler, Thermo Accela UPLC, and a Thermo Quantum mass spectrometer) using electrospray ionization against standards prepared in the same matrix

[5] abbreviates: CDI, mouse, brain (whole brain homogenate) relative to plasma, po, 20 mg/kg.
The mark [6] stands for this setting: CDI, mouse, brain (whole brain homogenate) relative to plasma, brain levels, mice.
Where [7] appears, read: phosphate buffered saline (PBS), 18 °C, kinetic from dmso stock.

T1 sequence (Q96P20 whole entry): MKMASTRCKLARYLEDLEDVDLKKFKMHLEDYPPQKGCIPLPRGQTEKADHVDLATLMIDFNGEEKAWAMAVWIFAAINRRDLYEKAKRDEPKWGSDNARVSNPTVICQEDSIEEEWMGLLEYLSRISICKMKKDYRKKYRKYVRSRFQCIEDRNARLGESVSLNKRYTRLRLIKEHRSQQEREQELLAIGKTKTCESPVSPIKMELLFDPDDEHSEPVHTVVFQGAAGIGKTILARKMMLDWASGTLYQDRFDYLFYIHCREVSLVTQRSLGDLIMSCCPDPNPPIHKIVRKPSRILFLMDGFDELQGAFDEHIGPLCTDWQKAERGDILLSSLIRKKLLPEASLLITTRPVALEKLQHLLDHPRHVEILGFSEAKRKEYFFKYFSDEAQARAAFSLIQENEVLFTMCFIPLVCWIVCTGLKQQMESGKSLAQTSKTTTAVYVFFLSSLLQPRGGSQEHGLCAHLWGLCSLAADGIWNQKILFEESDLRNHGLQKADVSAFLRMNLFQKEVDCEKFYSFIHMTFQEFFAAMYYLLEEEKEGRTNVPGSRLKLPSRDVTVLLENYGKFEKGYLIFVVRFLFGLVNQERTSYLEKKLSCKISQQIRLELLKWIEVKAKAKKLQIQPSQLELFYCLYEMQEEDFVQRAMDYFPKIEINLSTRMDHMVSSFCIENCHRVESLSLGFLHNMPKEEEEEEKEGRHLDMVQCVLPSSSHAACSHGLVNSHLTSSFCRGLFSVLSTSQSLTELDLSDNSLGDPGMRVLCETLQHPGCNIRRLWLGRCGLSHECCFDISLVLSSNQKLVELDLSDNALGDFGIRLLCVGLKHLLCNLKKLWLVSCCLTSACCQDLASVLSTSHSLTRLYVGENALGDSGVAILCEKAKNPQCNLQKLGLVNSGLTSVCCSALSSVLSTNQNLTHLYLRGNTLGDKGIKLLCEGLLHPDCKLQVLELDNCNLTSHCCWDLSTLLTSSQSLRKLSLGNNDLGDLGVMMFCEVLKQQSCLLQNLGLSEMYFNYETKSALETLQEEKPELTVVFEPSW

On to “6-(1-(((1R,5S,8s)-3-oxabicyclo[3.2.1]octan-8-yl)amino)pyrido[3,4-d]pyridazin-4-yl)-2-fluoro-3-methylphenol [Compound 15A-regioisomer]”, for which, on human NLRP3, the IC50 was determined as 1.51 µM.

The compound `Oc1cc(Cl)ccc1-c1nnc(N[C@H]2C[C@@H]3CC[C@H]2O3)c2cnccc12` (single isomer, unassigned) [Compound 3B*] returned an IC50 at human NLRP3 of 5 µM.

For `Oc1cc(Cl)ccc1-c1nnc(N[C@@H]2C[C@H]3CC[C@@H]2O3)c2cnccc12` (single isomer, unassigned) [Compound 3C*], on human NLRP3, inhibition was half-maximal at 0.27 µM (IC50). Further, the half-life in data set [1] stood at 1.67 h.

On to `Oc1cc(Cl)ccc1-c1nnc(N[C@H]2C[C@H]3CC[C@@H]2O3)c2cnccc12` (single isomer, unassigned) [Compound 3D*], for which the midpoint of inhibition on human NLRP3, the IC50, lay at 2.42 µM. In data set [1], the half-life was 0.167 h.

In turn, `Cc1ccc(-c2nnc(N[C@@H]3C[C@@H]4CC[C@H]3O4)c3cnccc23)c(O)c1` (single isomer, unassigned) [Compound 7A] gave an IC50 on human NLRP3 of 0.23 µM. In data set [2] (setting [5]), the Kp at 24 h is 0.61. Besides, the half-life was 0.95 h in data set [1] and more than 8 h in data set [3].

`Cc1ccc(-c2nnc(N[C@H]3C[C@@H]4CC[C@H]3O4)c3cnccc23)c(O)c1` (single isomer, unassigned) [Compound 7B] yielded an IC50 against human NLRP3 of 5.3 µM.

On human NLRP3, `Cc1ccc(-c2nnc(N[C@H]3C[C@H]4CC[C@@H]3O4)c3cnccc23)c(O)c1` (single isomer, unassigned) [Compound 7D] yielded an IC50 of 4.66 µM.

`Oc1cc(Cl)ccc1-c1nnc(N[C@@H]2C[C@@H]3C[C@H]2CO3)c2cnccc12` (single isomer, unassigned) [Compound 8A] had an IC50 at human NLRP3 of 0.27 µM. The half-life in data set [1] came to 4.17 h.

`Oc1cc(Cl)ccc1-c1nnc(N[C@H]2C[C@H]3C[C@@H]2CO3)c2cnccc12` (single isomer, unassigned) [Compound 8B]: the midpoint of inhibition against human NLRP3, the IC50, lay at 0.59 µM. Moreover, the Kp in data set [2] (setting [6]) turned out to be 0.35. Also, the Kpu,u is 0.1 in data set [2] (CDI, mouse, brain (whole brain homogenate) relative to plasma, po, 20 mg/kg, Kp corrected with mouse plasma protein binding and mouse brain homogenates binding, 20 mpk PO, read-out: Kpu,u); “— 0.10” in data set [2] (brain levels, unbound, mice). The Kp at 24 h in data set [2] (setting [5]) is 0.35. The half-life in data set [1] was found to be 4.67 h. The compound also showed a kinetic solubility at 2 h in data set [4] (phosphate buffered saline (PBS), 18 °C, aqueous buffer, kinetic from dmso stock, kinetic solubility, PBS pH 7.4, 2 hours at room temperature) of more than 300 µM. The solubility at 2 h in data set [4] (setting [7]) was more than 300 µM.

The compound `Oc1cc(Cl)ccc1-c1nnc(N[C@]23CCC(C2)OC3)c2cnccc12` (single isomer, unassigned) [Compound 9A] had an IC50 against human NLRP3 of more than 50 µM.

Consider `Oc1cc(Cl)ccc1-c1nnc(N[C@@]23CCC(C2)OC3)c2cnccc12` (single isomer, unassigned) [Compound 9B], for which, at human NLRP3, the IC50 was more than 50 µM.

Compound `Oc1cc(C(F)(F)F)ccc1-c1nnc(N[C@H]2C[C@@H]3CC[C@H]2O3)c2cnccc12` (single isomer, unassigned) [Compound 10B*] yielded an IC50 against human NLRP3 of 6.76 µM.

In turn, `Oc1cc(C(F)(F)F)ccc1-c1nnc(N[C@H]2C[C@H]3CC[C@@H]2O3)c2cnccc12` (single isomer, unassigned) [Compound 10D*] had an IC50 against human NLRP3 of 5.34 µM. For the same compound, the half-life in data set [1] is 8 h; in data set [3] it was more than 8 h.

Turning to `Oc1cc(Cl)ccc1-c1nnc(N[C@H]2C[C@H]3CC[C@@H](C2)O3)c2cnccc12` [Compound 1A*-r, 2-(4-(((1R,3r,5S)-8-oxabicyclo[3.2.1]octan-3-yl)amino)pyrido[3,4-d]pyridazin-1-yl)-5-chlorophenol], the IC50 against human NLRP3 came out at 1.39 µM. In data set [2] (setting [6]), this compound showed a Kp of 0.047. This compound returned a Kp at 24 h in data set [2] (setting [5]) of 0.047. In addition, the “Sol (PBS)” value in data set [4] (kinetic solubility, PBS pH 7.4, 2 hours at room temperature) is 3.5 µM. The compound also returned a solubility at 2 h in data set [4] (setting [7]) of 3.5 µM (≈ 1.34 µg/mL).

In turn, `Cc1ccc(-c2nnc(N[C@@H]3C[C@H]4CC[C@@H](C3)O4)c3cnccc23)c(O)c1` [Compound 2B*-r, 2-(4-(((1R,3s,5S)-8-oxabicyclo[3.2.1]octan-3-yl)amino)pyrido[3,4-d]pyridazin-1-yl)-5-methylphenol] showed an IC50 on human NLRP3 of 4.12 µM. Moreover, the half-life in data set [1] amounted to 3.67 h.

As to `Cc1ccc(-c2nnc(N[C@H]3C[C@H]4CC[C@@H](C3)O4)c3cnccc23)c(O)c1F` [Compound 12A*-r, 6-(4-(((1R,3r,5S)-8-oxabicyclo[3.2.1]octan-3-yl)amino)pyrido[3,4-d]pyridazin-1-yl)-2-fluoro-3-methylphenol], the half-inhibitory concentration (IC50) against human NLRP3 is 2 µM. Also, in data set [1], the half-life came out at 3.33 h.

Take `Cc1cc(O)c(-c2nnc(N[C@H]3[C@@H]4CC[C@H]3COC4)c3cnccc23)c(F)c1` [Compound 16A, 2-(4-(((1R,5S,8s)-3-oxabicyclo[3.2.1]octan-8-yl)amino)pyrido[3,4-d]pyridazin-1-yl)-3-fluoro-5-methylphenol]: half-maximal inhibition against human NLRP3 (IC50) was put at 0.48 µM.

As for `Cc1cc(C)c(-c2nnc(N[C@H]3[C@@H]4CC[C@H]3COC4)c3cnccc23)c(O)c1` [Compound 17A, 2-(4-(((1R,5S,8s)-3-oxabicyclo[3.2.1]octan-8-yl)amino)pyrido[3,4-d]pyridazin-1-yl)-3,5-dimethylphenol], the IC50 on human NLRP3 was found to be 0.31 µM.

As for `N#Cc1ccc(-c2nnc(N[C@H]3[C@@H]4CC[C@H]3COC4)c3cnccc23)c(O)c1` [Compound 18A, 4-(4-(((1R,5S,8s)-3-oxabicyclo[3.2.1]octan-8-yl)amino)pyrido[3,4-d]pyridazin-1-yl)-3-hydroxybenzonitrile], on human NLRP3, the IC50 turned out to be 0.32 µM.
